Consider two molecules from PMC5445929 (Journal of fluorine chemistry, 2016).

Like-named read-outs stand apart in the source and are kept apart here.

Data set [1] is described as follows: metabolic stability against liver microsomes. The class given is in vitro ADME. The settings on record: 4 h at 37 °C, LC–MS/MS.
Data set [2] is described as follows: metabolic stability against liver microsomes. The settings on record: murine microsomes, 4 h at 37 °C, LC–MS/MS. Format: in vitro ADME, mouse.
A further data set concerns M. tuberculosis H37Rv. Conditions: cited from earlier work.
Data set [3] is described as follows: metabolic stability against liver microsomes. The settings on record: 4 h at 37 °C, LC–MS/MS. Format: in vitro ADME. This is another data set of the same source.
In the next data set the test system is M. tuberculosis Erdman. Conditions: cited from earlier work.

For the molecule “2-cyclohexyl-5-dimethylamino-6-(4-trifluorimethoxy)benzamido-1,3-benzoxazole [Compound 12]”, the “% metabolic clearance human” value in data set [1] was 56%. For the same molecule, the “% metabolic clearance mouse” value in data set [2] was found to be 71%. Moreover, the “MIC (μg/mL) H37Rv” value in the data set with M. tuberculosis H37Rv was 6.25 µg/mL. Moreover, the “% metabolic clearance rat” value in data set [3] is listed as 22%.
As for `NNC(=O)c1ccncc1` [INH, isoniazid], in the data set with M. tuberculosis Erdman (route IP), the “log10 CFU Spleen” value was 0 ± 0 n = 5 log10 CFU, the “Δ log10 CFU Lungs (test vs control group means)” value is given as −6.57 log10 CFU and the “Δ log10 CFU Spleen (test vs control group means)” value was −4.96 log10 CFU. In the data set with M. tuberculosis Erdman (route PO), the “log10 CFU Spleen” value was 0 ± 0 n = 5 log10 CFU, the “Δ log10 CFU Lungs (test vs control group means)” value was −6.31 log10 CFU and the “Δ log10 CFU Spleen (test vs control group means)” value is −3.89 log10 CFU. Moreover, the “log10 CFU Lungs” value in the data set with M. tuberculosis Erdman (route PO, test compounds 50 mg/kg b.i.d., day 5-15 post infection) is 0 ± 0 n = 5 log10 CFU.
